Assay results from US8563490B2, “Mild to the skin, foaming detergent composition” (Conopco, Inc., priority 2010, dated 2013).

Biological target: a-Chymotrypsin from bovine pancreas (Bos taurus, UniProt P00766)
Protocol: The basis of the mildness assay is the enzymatic activity of Chymotrypsin on a chromogenic substrate. Surfactant mildness is assessed by the effect of a surfactant on the enzyme protein. A harsh surfactant will degrade Chymotrypsin, leading to a lower optical density reading in the reaction well. The enzyme used for this assay is a-Chymotrypsin from bovine pancreas. The enzyme used is the chromogenic substrate for Chymotrypsin, N-Succinyl-Ala-Ala-Pro-Phe-pNA.
The basis of the surfactant protein mildness detecting assay used was the enzymatic activity of Chymotrypsin on a chromogenic substrate. A harsh surfactant degrades Chymotrypsin, leading to a lower absorbance reading. Any reading greater than 0.8% is taken to be a pass for mildness.
For the skin protein protection assay, 70 μl stock buffer solution (33 mM of Tris pH8.0, 180 mM of NaCl, 1 mM of CaCl2), 10 μl substrate stock solution (Ala-Ala-Pro-Phe-pNA; 4 mg/ml) and 20 μl enzyme (α-Chyotrypsin; 10 ng per well) were added to the wells of a 96-well plate together with 100 ul of the formulations pre-diluted 1:10 in water. Reaction mixes were incubated for 45 minutes before colorimetric measurements were taken at 405 nm by a SpectraMax plate reader.

- Mildness Lsmean (least squares mean of Absorbance values): 0.36
Substance: Saponin extract from Zizyphus joazero [hh]
